{"source": "patent EP1734031A1", "about": "“NOVEL 2-(ALPHA-N-PENTANONYL)BENZOETES, THEIR PREPARATION AND USE” (priority 2004, dated 2005)", "key": {"[1]": {"test": "Stability to humidity (high humidity test, purity by HPLC)", "type": "physicochemical", "settings": "10 days"}, "[2]": {"test_system": "model rats of middle cerebral artery thrombosis (MCAT)", "test": "Effects on neural symptoms of MCAT rats (behavioral score)", "type": "in vivo, SD rats", "settings": "for Scores 6 hours: 6 hours after operation; for Scores 6 hours / Scores 24 hours: full mark 4; for Scores 24 hours: 24 hours after operation"}, "[3]": {"test_system": "model rats of middle cerebral artery thrombosis (MCAT)", "test": "Effects on cerebral infarct area of MCAT rats (TTC staining)", "type": "in vivo, SD rats", "settings": "for Cerebral infarct tissue weight/total brain weight: 24 hours after operation; for Inhibition (cerebral infarct): vs. model group"}, "[4]": {"test": "in vivo", "settings": "both, ICR, mouse, po"}, "[5]": {"test_system": "thrombosis of artery-vein bypass in rats", "test": "Effects on thrombosis of artery-vein bypass in rats", "type": "in vivo, SD rats", "settings": "for Dry-weight of thrombus / Wet-weight of thrombus: once per day for 3 days; for Inhibition (dry-weight of thrombus) / Inhibition (wet-weight of thrombus): vs. thrombus model group"}, "[6]": {"test_system": "ICR mice", "settings": "mouse, in vivo, po, 168 h"}, "[7]": {"test": "Thermal stability (purity by HPLC)", "settings": "10 days at 60°C", "protocol": "Tests were conducted for 10 days at 60°C in accordance with the testing method as described in Pharmacopoeia of P.R. China, 2000 ed., appendix XIX C of part two, \"Guideline for testing the stability of medicament: method for testing thermal stability\". The purity was determined in accordance with the test described in Pharmacopoeia of P.R. China, 2000 ed., appendix VD of part two, by using HPLC method, C18 column, mobile phase of acetonitrile:0.02M sodium dihydrogen phosphate = 40:60, detecting wavelength of 230 nm, flow rate of 1 ml/min."}, "[8]": {"test": "Stability to light (purity by HPLC)", "settings": "light test, 10 days", "protocol": "Tests were conducted for 10 days in accordance with the testing method as described in Pharmacopoeia of P.R. China, 2000 ed., appendix XIX C of part two, \"Guideline for testing the stability of medicament: method for testing stability to light\". The purity was determined in accordance with the test described in Pharmacopoeia of P.R. China, 2000 ed., appendix VD of part two, by using HPLC method, C18 column, mobile phase of acetonitrile:0.02M sodium dihydrogen phosphate = 40:60, detecting wavelength of 230 nm, flow rate of 1 ml/min."}, "[9]": {"settings": "50 mg/kg by gavage, vs. model group"}, "[10]": {"settings": "100 mg/kg by gavage, vs. model group"}, "[11]": {"settings": "200 mg/kg by gavage, vs. model group"}}, "note": "Marks after values point to notes of the source that are not given here.", "data": [{"smiles": "CCCCC(O)c1ccccc1C(=O)[O-].[K+]", "note": "(stereo not drawn) [Potassium 2-(α-hydroxypentyl)benzoate]", "values": [{"measurement": "decomposition after absorbing moisture", "setting": "[1]", "value": "highly decomposed"}, {"measurement": "Scores 6 hours", "setting": "[2]; 50 mg/kg by gavage", "value": "3.50±0.71"}, {"measurement": "Scores 24 hours", "setting": "[2]; 50 mg/kg by gavage", "value": "3.30±0.48"}, {"measurement": "% inhibition at hour 24", "setting": "[2]; [9]", "value": 9.34, "unit": "%"}, {"measurement": "Scores 6 hours", "setting": "[2]; 100 mg/kg by gavage", "value": "3.55±0.52"}, {"measurement": "Scores 24 hours", "setting": "[2]; 100 mg/kg by gavage", "value": "3.00±0.89"}, {"measurement": "% inhibition at hour 24", "setting": "[2]; [10]", "value": 19.57, "unit": "%"}, {"measurement": "Scores 6 hours", "setting": "[2]; 200 mg/kg by gavage", "value": "3.45±0.52"}, {"measurement": "Scores 24 hours", "setting": "[2]; 200 mg/kg by gavage", "value": "2.73±0.79"}, {"measurement": "% inhibition at hour 24", "setting": "[2]; [11]", "value": 26.81, "unit": "%"}, {"measurement": "Cerebral infarct tissue weight/total brain weight", "setting": "[3]; 50 mg/kg by gavage", "value": "6.16±2.46", "unit": "%"}, {"measurement": "Inhibition (cerebral infarct)", "setting": "[3]; 50 mg/kg by gavage", "value": 16.87, "unit": "%"}, {"measurement": "Cerebral infarct tissue weight/total brain weight", "setting": "[3]; 100 mg/kg by gavage", "value": "5.73±2.20", "unit": "%"}, {"measurement": "Inhibition (cerebral infarct)", "setting": "[3]; 100 mg/kg by gavage", "value": 27.83, "unit": "%"}, {"measurement": "Cerebral infarct tissue weight/total brain weight", "setting": "[3]; 200 mg/kg by gavage", "value": "5.37±2.00", "unit": "%"}, {"measurement": "Inhibition (cerebral infarct)", "setting": "[3]; 200 mg/kg by gavage", "value": 29.43, "unit": "%"}, {"measurement": "LD50 at 7 days", "setting": "[4]", "value": 1230, "unit": "mg/kg"}]}, {"smiles": "CCCCC(=O)c1ccccc1C(=O)O", "note": "[Calcium 2-(α-n-pentanonyl)benzoate, calcium 2-(α-n-pentanonyl)benzoate]", "values": [{"measurement": "Scores 6 hours", "setting": "[2]; 50 mg/kg by gavage", "value": "3.18±0.60"}, {"measurement": "Scores 24 hours", "setting": "[2]; 50 mg/kg by gavage", "value": "2.73±0.65**^,s"}, {"measurement": "% inhibition at hour 24", "setting": "[2]; [9]", "value": 25.00, "unit": "%"}, {"measurement": "alleviation on neural symptoms at 24 hours after the operation (in words)", "setting": "[2]; 50 mg/kg, vs. model group, P<0.01 or P<0.05", "value": "significantly alleviation"}, {"measurement": "Scores 6 hours", "setting": "[2]; 100 mg/kg by gavage", "value": "3.40±0.52"}, {"measurement": "Scores 24 hours", "setting": "[2]; 100 mg/kg by gavage", "value": "2.90±0.57"}, {"measurement": "% inhibition at hour 24", "setting": "[2]; [10]", "value": 22.25, "unit": "%"}, {"measurement": "Scores 6 hours", "setting": "[2]; 200 mg/kg by gavage", "value": "3.27±0.79"}, {"measurement": "Scores 24 hours", "setting": "[2]; 200 mg/kg by gavage", "value": "2.45±0.82"}, {"measurement": "% inhibition at hour 24", "setting": "[2]; [11]", "value": 34.32, "unit": "%"}, {"measurement": "Cerebral infarct tissue weight/total brain weight", "setting": "[3]; 50 mg/kg by gavage", "value": "5.01±1.79", "unit": "%"}, {"measurement": "Inhibition (cerebral infarct)", "setting": "[3]; 50 mg/kg by gavage", "value": 32.39, "unit": "%"}, {"measurement": "cerebral infarct compared with the model group (in words)", "setting": "[3]; 50 mg/kg, P<0.05", "value": "significantly reduced"}, {"measurement": "Cerebral infarct tissue weight/total brain weight", "setting": "[3]; 100 mg/kg by gavage", "value": "5.23±2.04", "unit": "%"}, {"measurement": "Inhibition (cerebral infarct)", "setting": "[3]; 100 mg/kg by gavage", "value": 34.13, "unit": "%"}, {"measurement": "Cerebral infarct tissue weight/total brain weight", "setting": "[3]; 200 mg/kg by gavage", "value": "4.65±2.13", "unit": "%"}, {"measurement": "Inhibition (cerebral infarct)", "setting": "[3]; 200 mg/kg by gavage", "value": 38.90, "unit": "%"}, {"measurement": "Dry-weight of thrombus", "setting": "[5]; 50 mg/kg by gavage", "value": "40.2 ± 18.0", "unit": "mg"}, {"measurement": "Wet-weight of thrombus", "setting": "[5]; 50 mg/kg by gavage", "value": "199.8 ± 30.4", "unit": "mg"}, {"measurement": "Inhibition (dry-weight of thrombus)", "setting": "[5]; 50 mg/kg", "value": 21.64, "unit": "%"}, {"measurement": "Inhibition (wet-weight of thrombus)", "setting": "[5]; 50 mg/kg", "value": 22.92, "unit": "%"}, {"measurement": "Dry-weight of thrombus", "setting": "[5]; 100 mg/kg by gavage", "value": "34.2 ± 13.1", "unit": "mg"}, {"measurement": "Wet-weight of thrombus", "setting": "[5]; 100 mg/kg by gavage", "value": "189.8 ± 52.3", "unit": "mg"}, {"measurement": "Inhibition (dry-weight of thrombus)", "setting": "[5]; 100 mg/kg", "value": 33.33, "unit": "%"}, {"measurement": "Inhibition (wet-weight of thrombus)", "setting": "[5]; 100 mg/kg", "value": 26.77, "unit": "%"}, {"measurement": "Dry-weight of thrombus", "setting": "[5]; 200 mg/kg by gavage", "value": "30.4 ± 13.9", "unit": "mg"}, {"measurement": "Wet-weight of thrombus", "setting": "[5]; 200 mg/kg by gavage", "value": "163.2 ± 64.4", "unit": "mg"}, {"measurement": "Inhibition (dry-weight of thrombus)", "setting": "[5]; 200 mg/kg", "value": 40.74, "unit": "%"}, {"measurement": "Inhibition (wet-weight of thrombus)", "setting": "[5]; 200 mg/kg", "value": 37.04, "unit": "%"}, {"measurement": "LD50 value", "setting": "[6]", "value": 2683.8, "unit": "mg/kg"}, {"measurement": "decomposed product (thermal stability)", "setting": "[7]", "value": "no decomposed product"}, {"measurement": "decomposed product (stability to light)", "setting": "[8]", "value": "no decomposed product"}]}]}
